What was measured:
Type in all cases: biochemical
PDE1B = PDE1B (Homo sapiens, UniProt Q01064); assay: PDE1 inhibition assay (SPA), PDE1B; conditions: for IC50: concentration required to reach 50% inhibition of the enzyme, 15 nM tritium labelled cAMP, read-out: PDE1B inhibition (nM or %): IC50; for inhibition at 10 µM: 1 h, % inhibition of the enzyme at a concentration of 10 micro molar of the compound, read-out: PDE1B inhibition (nM or %): % inhib
Protocol: (§1) PDE1 Inhibition Assay PDE1A, PDE1B and PDE1C assays were performed as follows: the assays were performed in 60 μL samples containing a fixed amount of the PDE1 enzym1 (sufficient to convert 20-25% of the cyclic nucleotide substrate), a buffer (50 mM HEPES pH 7.6; 10 mM MgCl2; 0.02% Tween20), 0.1 mg/ml BSA, 15 nM tritium labelled cAMP and varying amounts of inhibitors. Reactions were initiated by addition of the cyclic nucleotide substrate, and reactions were allowed to proceed for 1 h at room temperature before being terminated through mixing with 20 μL (0.2 mg) yttrium silicate SPA beads (PerkinElmer). The beads were allowed to settle for 1 h in the dark before the plates were counted in a Wallac 1450 Microbeta counter. The measured signals were converted to activity relative to an uninhibited control (100%) and IC50 values were calculated using XIFit (model 205, IDBS).

PDE1A = PDE1A (Homo sapiens, UniProt P54750); assay: PDE1 inhibition assay (SPA), PDE1A; conditions: for IC50: concentration required to reach 50% inhibition of the enzyme, 15 nM tritium labelled cAMP, read-out: PDE1A inhibition (nM or %): IC50; for inhibition at 10 µM: 1 h, read-out: PDE1A inhibition (nM or %): % inhib
Protocol: as §1

PDE1C = PDE1C (Homo sapiens, UniProt Q14123); assay: PDE1 inhibition assay (SPA), PDE1C; conditions: for IC50: concentration required to reach 50% inhibition of the enzyme, 15 nM tritium labelled cAMP, read-out: PDE1C inhibition (nM or %): IC50
Protocol: as §1

[1] = % inhibition of the enzyme at a concentration of 10 micro molar of the compound

Chain of PDE1C (Q14123 whole entry): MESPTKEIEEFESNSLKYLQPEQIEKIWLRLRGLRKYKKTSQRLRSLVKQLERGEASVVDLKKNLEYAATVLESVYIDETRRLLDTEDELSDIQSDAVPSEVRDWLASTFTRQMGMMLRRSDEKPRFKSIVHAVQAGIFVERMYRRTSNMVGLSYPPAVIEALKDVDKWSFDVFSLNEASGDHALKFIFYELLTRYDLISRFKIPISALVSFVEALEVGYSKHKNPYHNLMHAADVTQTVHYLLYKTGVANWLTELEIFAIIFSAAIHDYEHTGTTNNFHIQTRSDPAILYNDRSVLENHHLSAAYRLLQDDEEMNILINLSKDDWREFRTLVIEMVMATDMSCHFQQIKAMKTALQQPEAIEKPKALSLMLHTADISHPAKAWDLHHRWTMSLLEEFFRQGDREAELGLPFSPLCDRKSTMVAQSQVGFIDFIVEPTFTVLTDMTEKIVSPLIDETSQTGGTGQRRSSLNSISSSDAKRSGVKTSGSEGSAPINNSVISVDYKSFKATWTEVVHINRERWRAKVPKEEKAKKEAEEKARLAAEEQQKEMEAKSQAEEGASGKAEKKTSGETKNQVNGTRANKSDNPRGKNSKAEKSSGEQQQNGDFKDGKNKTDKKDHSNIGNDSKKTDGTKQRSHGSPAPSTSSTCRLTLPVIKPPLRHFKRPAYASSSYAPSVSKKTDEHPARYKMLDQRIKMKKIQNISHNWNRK
Chain of PDE1B (Q01064 whole entry): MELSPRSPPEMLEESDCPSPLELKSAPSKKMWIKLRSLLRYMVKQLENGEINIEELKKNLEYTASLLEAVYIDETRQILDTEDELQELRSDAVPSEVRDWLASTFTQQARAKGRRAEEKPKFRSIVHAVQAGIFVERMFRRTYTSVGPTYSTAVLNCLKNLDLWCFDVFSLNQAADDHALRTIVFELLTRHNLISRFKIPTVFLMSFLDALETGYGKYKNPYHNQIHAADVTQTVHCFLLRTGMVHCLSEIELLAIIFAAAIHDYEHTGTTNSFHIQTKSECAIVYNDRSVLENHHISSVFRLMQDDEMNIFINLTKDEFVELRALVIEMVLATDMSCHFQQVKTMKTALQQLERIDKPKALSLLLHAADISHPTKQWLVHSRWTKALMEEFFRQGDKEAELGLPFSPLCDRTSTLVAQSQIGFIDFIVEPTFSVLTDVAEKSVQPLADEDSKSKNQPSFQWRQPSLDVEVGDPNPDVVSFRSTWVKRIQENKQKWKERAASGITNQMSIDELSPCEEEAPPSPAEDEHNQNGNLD
Chain of PDE1A (P54750 whole entry): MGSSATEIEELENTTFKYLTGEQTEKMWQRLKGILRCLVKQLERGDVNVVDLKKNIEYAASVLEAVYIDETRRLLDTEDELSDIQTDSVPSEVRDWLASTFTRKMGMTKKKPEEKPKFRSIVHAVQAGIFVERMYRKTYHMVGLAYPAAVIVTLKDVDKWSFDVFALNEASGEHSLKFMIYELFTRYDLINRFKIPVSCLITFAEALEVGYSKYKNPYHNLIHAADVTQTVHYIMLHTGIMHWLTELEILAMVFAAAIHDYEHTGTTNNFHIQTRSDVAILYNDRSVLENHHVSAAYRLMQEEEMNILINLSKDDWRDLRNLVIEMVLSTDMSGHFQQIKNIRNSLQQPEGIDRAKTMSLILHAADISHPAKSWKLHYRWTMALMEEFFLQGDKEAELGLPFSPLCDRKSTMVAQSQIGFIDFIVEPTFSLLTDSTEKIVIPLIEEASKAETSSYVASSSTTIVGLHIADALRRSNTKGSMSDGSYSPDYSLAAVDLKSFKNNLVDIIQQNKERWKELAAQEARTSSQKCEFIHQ

Compound	IC50 (PDE1B) [nM]	IC50 (PDE1A) [nM]	IC50 (PDE1C) [nM]	inhibition at 10 µM (PDE1B) [%]	PDE1A inhibition (nM or %): % inhib (PDE1A; [1]) [%]	inhibition at 10 µM (PDE1A; [1]) [%]	PDE1C inhibition (nM or %): % inhib (PDE1C; [1]) [%]
CCCc1nnc2c(=O)n(CC3CCCCC3C)ccn12 (mixture of isomers) [7-((2-methylcyclohexyl)methyl)-3-propyl-[1,2,4]triazolo[4,3-a]pyrazin-8(7H)-one]	260	320	240				
CCCc1nnc2c(=O)n(CC3CCCC(C)C3)ccn12 (mixture of isomers) [7-((3-methylcyclohexyl)methyl)-3-propyl-[1,2,4]triazolo[4,3-a]pyrazin-8(7H)-one]	230	320	83				
CCCc1nnc2c(=O)n(CC3CCC(F)CC3)ccn12 (mixture of isomers) [7-((4-fluorocyclohexyl)methyl)-3-propyl-[1,2,4]triazolo[4,3-a]pyrazin-8(7H)-one]	560	660	610				
CCCc1nnc2c(=O)n(CC3CCC(C)CC3)ccn12 (racemic) [7-((4-methylcyclohexyl)methyl)-3-propyl-[1,2,4]triazolo[4,3-a]pyrazin-8(7H)-one]	53	83	65				
CCCc1nnc2c(=O)n(Cc3cccc(F)c3)cc([C@H]3CCOC3)n12 (single isomer, unassigned)	2300	1610	260				
CCCc1nnc2c(=O)n(Cc3cccc(F)c3)c([C@H]3CCOC3)cn12 (single isomer, unassigned)	1800	2980	290				
CCCc1nnc2c(=O)n(Cc3cccc(F)c3)cc([C@@H]3CCOC3)n12 (single isomer, unassigned)	1000	1780	260				
CCCc1nnc2c(=O)n(Cc3cccc(F)c3)c([C@@H]3CCOC3)cn12 (single isomer, unassigned)	1100	1100	270				
CCCc1nnc2c(=O)n(CC3CCOC3)ccn12 (single isomer, unassigned) [3-Propyl-7-((tetrahydrofuran-3-yl)methyl)-[1,2,4]triazolo[4,3-a]pyrazin-8(7H)-one]	4000			67			
O=c1c2nnc(CC3CCCO3)n2ccn1Cc1cccc(F)c1 (single isomer, unassigned) [7-(3-Fluorobenzyl)-3-((tetrahydrofuran-2-yl)methyl)-[1,2,4]t] [7-(3-Fluorobenzyl)-3-((tetrahydrofuran-2-yl)methyl)-[1,2,4]triazolo[4,3-a]pyrazin-8(7H)-one]					49		
CCCc1nnc2c(=O)n(CC3CCC(C)CC3)ccn12 (single isomer, unassigned) [7-(((1 r,4r)-4-methylcyclohexyl)methyl)-3-propyl-[1,2,4]triazolo[4,3-a]pyrazin-8(7H)-one]	40	79	120				
CCCc1nnc2c(=O)n(CC3CCC(C)CC3)ccn12 (single isomer, unassigned) [7-(((1s,4s)-4-methylcyclohexyl)methyl)-3-propyl-[1,2,4]triazolo[4,3-a]pyrazin-8(7H)-one]	24	111	36				
CC(F)(F)c1nnc2c(=O)n(Cc3cccc(F)c3)ccn12 [3-(1,1-Difluoroethyl)-7-(3-fluorobenzyl)-[1,2,4]triazolo[4,3-a]pyrazin-8(7H)-one]	2700	2500	550				
CCCc1nnc2c(=O)n(Cc3ccccc3C(F)(F)F)ccn12 [3-Propyl-7-(2-(trifluoromethyl)benzyl)-[1,2,4]triazolo[4,3-a]pyrazin-8(7H)-one]				46		44	41
CCCc1nnc2c(=O)n(Cc3ccc(C(F)(F)F)cc3)ccn12 [3-Propyl-7-(4-(trifluoromethyl)benzyl)-[1,2,4]triazolo[4,3-a]pyrazin-8(7H)-one]	570	1200	2100				
CCCc1nnc2c(=O)n(CC3CCOCC3)ccn12 [3-Propyl-7-((tetrahydro-2H-pyran-4-yl)methyl)-[1,2,4]triazolo[4,3-a]pyrazin-8(7H)-one]			1600	47		42	
CCCc1nnc2c(=O)n(CC3CCC4(CC3)CC4)ccn12 [3-propyl-7-(spiro[2.5]octan-6-ylmethyl)-[1,2,4]triazolo[4,3-a]pyrazin-8(7H)-one]	53	86	92				
CCCc1nnc2c(=O)n(Cc3cccc(F)c3)cc(Br)n12 [5-bromo-7-(3-fluorobenzyl)-3-propyl-[1,2,4]triazolo[4,3-a]pyrazin-8(7H)-one]	180	149	72				
CCCc1nnc2c(=O)n(Cc3cccc(F)c3)cc(CC)n12 [5-ethyl-7-(3-fluorobenzyl)-3-propyl-[1,2,4]triazolo[4,3-a]pyrazin-8(7H)-one]	510	858	180				
O=c1c2nnc(C3CCOCC3)n2cc(Cc2cccc(F)c2)n1Cc1cccc(F)c1 [6,7-bis(3-fluorobenzyl)-3-(tetrahydro-2H-pyran-4-yl)-[1,2,4]triazolo[4,3-a]pyrazin-8(7H)-one]	40	47	8				
O=c1c2nnc(C3CCOCC3)n2cc(Cc2ccc(-c3ccccc3)cc2)n1CC1CCCCC1 [6-([1,1′-biphenyl]-4-ylmethyl)-7-(cyclohexylmethyl)-3-(tetrahydro-2H-pyran-4-yl)-[1,2,4]triazolo[4,3-a]pyrazin-8(7H)-one]	0.17	0.33	0.1				
O=c1c2nnc(C3CCOCC3)n2cc(Cc2ccccc2)n1Cc1cccc(F)c1 [6-benzyl-7-(3-fluorobenzyl)-3-(tetrahydro-2H-pyran-4-yl)-[1,2,4]triazolo[4,3-a]pyrazin-8(7H)-one]	18	32	5				

Results, then the compound that gave them:

IC50 (PDE1B) [nM]	IC50 (PDE1A) [nM]	IC50 (PDE1C) [nM]	inhibition at 10 µM (PDE1B) [%]	PDE1A inhibition (nM or %): % inhib (PDE1A; [1]) [%]	inhibition at 10 µM (PDE1A; [1]) [%]	PDE1C inhibition (nM or %): % inhib (PDE1C; [1]) [%]	Compound
3700			67		67		O=c1c2nnc(CC3CCCO3)n2ccn1Cc1cccc(F)c1 (single isomer, unassigned) [7-(3-Fluorobenzyl)-3-((tetrahydrofuran-2-yl)methyl)-[1,2,4]triazolo[4,3-a]pyrazin-8(7H)-one]
	3200						O=c1c2nnc(C3CCCCO3)n2ccn1Cc1cccc(F)c1 (single isomer, unassigned) [7-(3-Fluorobenzyl)-3-(tetrahydro-2H-pyran-2-yl)-[1,2,4]triaz] [7-(3-Fluorobenzyl)-3-(tetrahydro-2H-pyran-2-yl)-[1,2,4]triazolo[4,3-a]pyrazin-8(7H)-one]
	3200						O=c1c2nnc(C3CCCCO3)n2ccn1Cc1cccc(F)c1 (single isomer, unassigned) [7-(3-Fluorobenzyl)-3-(tetrahydro-2H-pyran-2-yl)-[1,2,4]triazolo[4,3-a]pyrazin-8(7H)-one]
	1800						O=c1c2nnc(C3CCCOC3)n2ccn1Cc1cccc(F)c1 (single isomer, unassigned) [7-(3-Fluorobenzyl)-3-(tetrahydro-2H-pyran-3-yl)-[1,2,4]triaz] [7-(3-Fluorobenzyl)-3-(tetrahydro-2H-pyran-3-yl)-[1,2,4]triazolo[4,3-a]pyrazin-8(7H)-one]
	1800						O=c1c2nnc(C3CCCOC3)n2ccn1Cc1cccc(F)c1 (single isomer, unassigned) [7-(3-Fluorobenzyl)-3-(tetrahydro-2H-pyran-3-yl)-[1,2,4]triazolo[4,3-a]pyrazin-8(7H)-one]
		240					O=c1c2nnc(C3CCOC3)n2ccn1Cc1cccc(F)c1 (single isomer, unassigned) [7-(3-Fluorobenzyl)-3-(tetrahydrofuran-3-yl)-[1,2,4]triazolo[4,3-a]pyrazin-8(7H)-one]
		240					O=c1c2nnc(C3CCOC3)n2ccn1Cc1cccc(F)c1 (single isomer, unassigned) [7-(3-Fluorobenzyl)-3-(tetrahydrofuran-3-yl)-[1,2,4]triazolo[] [7-(3-Fluorobenzyl)-3-(tetrahydrofuran-3-yl)-[1,2,4]triazolo[4,3-a]pyrazin-8(7H)-one]
590	810	120					O=c1c2nnc(C3CCCCC3)n2ccn1Cc1cccc(F)c1 [3-Cyclohexyl-7-(3-fluorobenzyl)-[1,2,4]triazolo[4,3-a]pyrazin-8(7H)-one]
290	420	800					O=c1c2nnc(C3CCCC3)n2ccn1Cc1cccc(F)c1 [3-Cyclopentyl-7-(3-fluorobenzyl)-[1,2,4]triazolo[4,3-a]pyrazin-8(7H)-one]
780	500	210					O=c1c2nnc(C3CC3)n2ccn1Cc1cccc(F)c1 [3-Cyclopropyl-7-(3-fluorobenzyl)-[1,2,4]triazolo[4,3-a]pyrazin-8(7H)-one]

Reference: patent US10150771B2, “Triazolopyrazinones as PDE1 inhibitors” (H. Lundbeck A/S, priority 2014, dated 2018)
